From ChEMBL document CHEMBL5223094, “Recent advancements in chromone as a privileged scaffold towards the development of small molecules for neurodegenerative therapeutics” (RSC Med Chem, 2022) come the findings set out here.

Data set [1] concerns the target Acetylcholinesterase (Electrophorus electricus, UniProt O42275). The data set can be described thus: Inhibition of electric eel AChE using acetylthiocholine iodide as substrate preincubated for 5 mins followed by substrate addition and measured upto 7.5 mins by Ellman's method. For orientation: In Ellman's method for cholinesterases, released thiocholine reacts with DTNB.

Data set [2] addresses Amyloid-beta precursor protein (Homo sapiens) (UniProt P05067). In words: Inhibition of Amyloid beta (1 to 42) (unknown origin) self aggregation and at 20 uM and measured upto 24 hrs by ThT-based fluorimetric assay.
The target in data set [3] is T1, Amine oxidase [flavin-containing] A (Homo sapiens, UniProt P21397).
T1 sequence (P21397 whole entry): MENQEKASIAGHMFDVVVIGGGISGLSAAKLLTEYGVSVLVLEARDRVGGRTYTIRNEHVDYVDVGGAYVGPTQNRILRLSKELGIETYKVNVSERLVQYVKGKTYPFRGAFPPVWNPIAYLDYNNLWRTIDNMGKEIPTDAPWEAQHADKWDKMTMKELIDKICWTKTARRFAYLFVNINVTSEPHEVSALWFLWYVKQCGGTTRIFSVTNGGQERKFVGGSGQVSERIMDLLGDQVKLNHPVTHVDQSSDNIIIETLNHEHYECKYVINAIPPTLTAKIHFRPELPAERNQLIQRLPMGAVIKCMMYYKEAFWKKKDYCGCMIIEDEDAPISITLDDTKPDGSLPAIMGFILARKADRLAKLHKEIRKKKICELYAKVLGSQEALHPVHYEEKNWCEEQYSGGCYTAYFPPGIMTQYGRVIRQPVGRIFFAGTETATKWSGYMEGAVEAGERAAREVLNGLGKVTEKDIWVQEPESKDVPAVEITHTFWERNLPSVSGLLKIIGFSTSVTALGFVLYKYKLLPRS
The data set can be described thus: Inhibition of recombinant human MAO-A using tyramine as substrate preincubated for 30 mins followed by substrate addition and measured after 30 mins by amplex red reagent based fluorometric method.

Data set [4] addresses T2, Amine oxidase [flavin-containing] B (Homo sapiens, UniProt P27338).
T2 sequence (P27338 whole entry): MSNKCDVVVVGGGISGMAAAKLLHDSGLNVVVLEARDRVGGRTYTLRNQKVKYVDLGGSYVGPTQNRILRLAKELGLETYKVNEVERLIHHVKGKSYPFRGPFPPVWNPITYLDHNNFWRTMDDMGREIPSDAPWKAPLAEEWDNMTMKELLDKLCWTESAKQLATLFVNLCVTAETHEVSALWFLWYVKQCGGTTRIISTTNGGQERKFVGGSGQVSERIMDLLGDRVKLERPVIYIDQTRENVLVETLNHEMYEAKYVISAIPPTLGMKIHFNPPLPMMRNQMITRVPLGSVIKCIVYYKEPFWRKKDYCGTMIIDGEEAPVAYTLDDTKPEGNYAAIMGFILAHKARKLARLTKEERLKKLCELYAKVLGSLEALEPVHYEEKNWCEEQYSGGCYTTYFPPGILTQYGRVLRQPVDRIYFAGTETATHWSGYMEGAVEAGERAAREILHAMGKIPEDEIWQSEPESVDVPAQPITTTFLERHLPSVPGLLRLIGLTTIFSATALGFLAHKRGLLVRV
In words: Inhibition of recombinant human MAO-B using tyramine as substrate preincubated for 30 mins followed by substrate addition and measured after 30 mins by amplex red reagent based fluorometric method.

Data set [5] deals with T2, Amine oxidase [flavin-containing] B. The data set can be described thus: Inhibition of human MAO-B assessed as recovery of enzyme activity by dialysis method. More on the design: scale not given: the % may be the effect or the level left.
The target is the same in data set [6]. In words: Inhibition of human MAO-B using tyramine as substrate preincubated for 10 mins followed by substrate addition and measured after 30 mins by fluorometric method.
The target of data set [7] is T1, Amine oxidase [flavin-containing] A. In words: Inhibition of human MAO-A using tyramine as substrate preincubated for 10 mins followed by substrate addition and measured after 30 mins by fluorometric method.
Data set [8] concerns the target T3, Acetylcholinesterase (Homo sapiens, UniProt P22303). The data set can be described thus: Inhibition of AchE (unknown origin) using acetylthiocholine iodide as substrate preincubated for 15 mins followed by substrate addition and measured upto 4 mins by Ellman's spectrophotometric method.
Data set [9] deals with T3, Acetylcholinesterase. The data set can be described thus: Inhibition of recombinant human AchE using acetylthiocholine iodide as substrate and measured upto 2 mins by Ellman's method.
The target of data set [10] is Cholinesterase (Homo sapiens, UniProt P06276). The data set can be described thus: Inhibition of recombinant human BuChE using butyrylthiocholine as substrate preincubated for 15 mins followed by substrate addition and measured after 5 mins by Ellman's method.
For data set [11], the target named is T3, Acetylcholinesterase. In words: Inhibition of recombinant human AChE using acetylthiocholine as substrate preincubated for 15 mins followed by substrate addition and measured after 5 mins by DTNB reagent based Ellman's method.
Data set [12] deals with T4, Polyunsaturated fatty acid 5-lipoxygenase (Homo sapiens, UniProt P09917).
T4 sequence (P09917 whole entry): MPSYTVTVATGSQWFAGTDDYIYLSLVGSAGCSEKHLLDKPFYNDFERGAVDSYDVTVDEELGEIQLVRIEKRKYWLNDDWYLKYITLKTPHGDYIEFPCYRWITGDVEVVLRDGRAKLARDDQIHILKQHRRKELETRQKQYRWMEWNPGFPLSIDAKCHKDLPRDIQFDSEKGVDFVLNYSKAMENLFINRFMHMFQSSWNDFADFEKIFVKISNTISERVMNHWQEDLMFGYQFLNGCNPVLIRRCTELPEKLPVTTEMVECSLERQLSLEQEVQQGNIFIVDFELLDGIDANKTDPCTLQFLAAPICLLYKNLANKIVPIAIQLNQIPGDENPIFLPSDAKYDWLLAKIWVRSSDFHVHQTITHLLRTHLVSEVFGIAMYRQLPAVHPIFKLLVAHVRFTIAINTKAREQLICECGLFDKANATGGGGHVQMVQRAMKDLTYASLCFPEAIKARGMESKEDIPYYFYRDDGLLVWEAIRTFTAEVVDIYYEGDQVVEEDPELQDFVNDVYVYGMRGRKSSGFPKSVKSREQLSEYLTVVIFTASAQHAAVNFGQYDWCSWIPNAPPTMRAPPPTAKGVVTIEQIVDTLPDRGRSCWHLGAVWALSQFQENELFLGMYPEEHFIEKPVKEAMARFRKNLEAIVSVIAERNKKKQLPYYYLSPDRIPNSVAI
In words: Inhibition of human LOX5 using arachidonic acid preincubated for 10 mins followed by substrate addition by microplate spectrophotometric analysis.

The nature of data set [13]: Antioxidant activity assessed as DPPH radical scavenging activity incubated for 45 mins by microplate spectrophotometric anlaysis. Format: functional.
Data set [14] can be described thus: Antioxidant activity assessed as DPPH radical scavenging activity. In kind it is functional. A general note: The DPPH test is a chemical assay of radical scavenging.
Data set [15] concerns the target T5, Polyunsaturated fatty acid lipoxygenase ALOX15 (Homo sapiens, UniProt P16050).
T5 sequence (P16050 whole entry): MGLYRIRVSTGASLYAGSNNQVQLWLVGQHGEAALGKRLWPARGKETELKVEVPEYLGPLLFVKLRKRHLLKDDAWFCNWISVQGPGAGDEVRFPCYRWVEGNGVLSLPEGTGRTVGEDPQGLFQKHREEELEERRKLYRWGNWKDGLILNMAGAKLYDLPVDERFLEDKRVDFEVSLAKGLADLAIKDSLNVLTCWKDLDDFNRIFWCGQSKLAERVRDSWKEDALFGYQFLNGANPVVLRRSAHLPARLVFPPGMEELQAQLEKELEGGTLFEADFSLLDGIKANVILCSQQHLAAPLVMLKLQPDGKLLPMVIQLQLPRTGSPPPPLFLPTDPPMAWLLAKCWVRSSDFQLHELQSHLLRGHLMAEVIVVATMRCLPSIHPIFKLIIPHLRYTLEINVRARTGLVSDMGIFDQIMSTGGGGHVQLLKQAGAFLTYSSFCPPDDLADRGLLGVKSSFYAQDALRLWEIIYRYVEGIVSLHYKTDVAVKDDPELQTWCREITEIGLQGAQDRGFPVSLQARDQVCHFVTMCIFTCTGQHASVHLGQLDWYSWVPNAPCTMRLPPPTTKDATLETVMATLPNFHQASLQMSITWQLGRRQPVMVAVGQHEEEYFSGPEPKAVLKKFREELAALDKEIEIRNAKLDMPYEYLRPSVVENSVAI
The data set can be described thus: Inhibition of LOX15 (unknown origin).

Data set [16] can be described thus: Inhibition of soybean LOX15 using arachidonic acid preincubated for 5 mins followed by substrate addition and measured after 5 mins by microplate spectrophotometric analysis. More on the design: species or system Glycine max.
The target in data set [17] is T3, Acetylcholinesterase. The data set can be described thus: Inhibition of human AchE expressed in human HEK293 cells using acetylthiocholine as substrate preincubated for 10 mins followed by substrate addition and measured after 5 to 8 mins by DTNB based Ellman's spectrophotometric method. Format: cell-based.
Data set [18] is described as follows: Antioxidant activity assessed as trolox equivalent of ORAC radical scavenging activity incubated for 15 mins by ORAC-fluorescein assay. Format: functional.
Data set [19] concerns the target Cholinesterase (Equus caballus, UniProt P81908). In words: Inhibition of equine serum BuchE using butyrylthiocholine iodide as substrate preincubated for 10 mins followed by substrate addition and measured after 20 mins by DTNB based Ellman's method.
In data set [20] the target is T2, Amine oxidase [flavin-containing] B. In words: Inhibition of human MAO-B using kynuramine as substrate preincubated for 5 mins followed by substrate addition and measured after 30 mins by spectroscopic analysis.
Data set [21] has as its target T1, Amine oxidase [flavin-containing] A. In words: Inhibition of human MAO-A using kynuramine as substrate preincubated for 5 mins followed by substrate addition and measured after 30 mins by spectroscopic analysis.

T3 sequence (P22303 whole entry): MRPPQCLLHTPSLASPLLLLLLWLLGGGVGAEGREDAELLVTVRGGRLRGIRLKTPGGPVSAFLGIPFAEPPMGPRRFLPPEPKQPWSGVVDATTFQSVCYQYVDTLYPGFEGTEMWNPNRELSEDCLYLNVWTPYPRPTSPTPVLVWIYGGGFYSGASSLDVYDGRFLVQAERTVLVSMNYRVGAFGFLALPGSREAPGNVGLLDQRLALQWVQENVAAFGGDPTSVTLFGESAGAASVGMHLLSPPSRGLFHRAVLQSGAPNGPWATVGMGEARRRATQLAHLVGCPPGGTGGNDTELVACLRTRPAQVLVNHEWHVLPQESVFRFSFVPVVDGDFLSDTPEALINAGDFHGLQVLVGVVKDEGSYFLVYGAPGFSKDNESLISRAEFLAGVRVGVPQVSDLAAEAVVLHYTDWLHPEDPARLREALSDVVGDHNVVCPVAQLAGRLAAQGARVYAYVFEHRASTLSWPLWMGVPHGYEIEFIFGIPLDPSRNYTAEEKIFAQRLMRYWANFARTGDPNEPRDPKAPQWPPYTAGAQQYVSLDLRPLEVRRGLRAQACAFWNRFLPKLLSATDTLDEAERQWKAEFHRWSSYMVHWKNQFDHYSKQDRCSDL
Acetylcholinesterase (Electrophorus electricus, UniProt O42275), sequence (O42275 whole entry): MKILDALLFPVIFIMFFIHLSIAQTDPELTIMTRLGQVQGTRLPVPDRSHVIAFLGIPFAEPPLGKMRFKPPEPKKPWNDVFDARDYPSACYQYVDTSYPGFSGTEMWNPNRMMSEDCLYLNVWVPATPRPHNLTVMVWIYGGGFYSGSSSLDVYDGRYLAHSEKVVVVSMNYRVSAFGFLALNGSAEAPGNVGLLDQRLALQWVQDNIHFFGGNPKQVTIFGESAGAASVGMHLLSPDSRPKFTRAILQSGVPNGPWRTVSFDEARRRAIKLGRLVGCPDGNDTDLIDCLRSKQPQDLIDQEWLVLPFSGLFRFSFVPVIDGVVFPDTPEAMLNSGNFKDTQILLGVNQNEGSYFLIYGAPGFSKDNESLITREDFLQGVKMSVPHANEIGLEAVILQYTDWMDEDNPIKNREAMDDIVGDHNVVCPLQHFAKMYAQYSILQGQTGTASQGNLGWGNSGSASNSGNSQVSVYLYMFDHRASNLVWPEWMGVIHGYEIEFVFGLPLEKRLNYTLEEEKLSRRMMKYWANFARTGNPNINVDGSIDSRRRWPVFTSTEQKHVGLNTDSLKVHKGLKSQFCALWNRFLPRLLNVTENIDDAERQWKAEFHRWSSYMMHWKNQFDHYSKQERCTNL
Amyloid-beta precursor protein (Homo sapiens), sequence (P05067 whole entry): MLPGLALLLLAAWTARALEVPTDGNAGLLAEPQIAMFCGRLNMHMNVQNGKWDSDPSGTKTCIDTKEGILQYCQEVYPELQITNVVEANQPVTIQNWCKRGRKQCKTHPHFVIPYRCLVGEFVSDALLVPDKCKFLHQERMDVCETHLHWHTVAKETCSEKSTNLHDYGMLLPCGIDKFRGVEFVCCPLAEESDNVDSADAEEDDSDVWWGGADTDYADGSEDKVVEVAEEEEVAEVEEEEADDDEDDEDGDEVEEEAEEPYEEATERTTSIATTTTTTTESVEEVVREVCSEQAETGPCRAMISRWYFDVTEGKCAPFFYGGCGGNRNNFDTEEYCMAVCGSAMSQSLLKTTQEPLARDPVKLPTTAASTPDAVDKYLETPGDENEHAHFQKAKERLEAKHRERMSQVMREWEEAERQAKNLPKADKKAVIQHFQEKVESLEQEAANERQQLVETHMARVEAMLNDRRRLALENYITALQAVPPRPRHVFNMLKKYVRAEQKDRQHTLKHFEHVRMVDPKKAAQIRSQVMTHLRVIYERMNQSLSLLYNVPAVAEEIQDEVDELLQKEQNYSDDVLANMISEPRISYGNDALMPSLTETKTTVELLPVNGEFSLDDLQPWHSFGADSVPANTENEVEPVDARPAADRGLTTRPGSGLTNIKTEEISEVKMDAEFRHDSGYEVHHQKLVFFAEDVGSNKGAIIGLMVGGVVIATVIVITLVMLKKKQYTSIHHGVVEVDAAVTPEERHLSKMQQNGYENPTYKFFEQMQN
Cholinesterase (Homo sapiens, UniProt P06276), sequence (P06276 whole entry): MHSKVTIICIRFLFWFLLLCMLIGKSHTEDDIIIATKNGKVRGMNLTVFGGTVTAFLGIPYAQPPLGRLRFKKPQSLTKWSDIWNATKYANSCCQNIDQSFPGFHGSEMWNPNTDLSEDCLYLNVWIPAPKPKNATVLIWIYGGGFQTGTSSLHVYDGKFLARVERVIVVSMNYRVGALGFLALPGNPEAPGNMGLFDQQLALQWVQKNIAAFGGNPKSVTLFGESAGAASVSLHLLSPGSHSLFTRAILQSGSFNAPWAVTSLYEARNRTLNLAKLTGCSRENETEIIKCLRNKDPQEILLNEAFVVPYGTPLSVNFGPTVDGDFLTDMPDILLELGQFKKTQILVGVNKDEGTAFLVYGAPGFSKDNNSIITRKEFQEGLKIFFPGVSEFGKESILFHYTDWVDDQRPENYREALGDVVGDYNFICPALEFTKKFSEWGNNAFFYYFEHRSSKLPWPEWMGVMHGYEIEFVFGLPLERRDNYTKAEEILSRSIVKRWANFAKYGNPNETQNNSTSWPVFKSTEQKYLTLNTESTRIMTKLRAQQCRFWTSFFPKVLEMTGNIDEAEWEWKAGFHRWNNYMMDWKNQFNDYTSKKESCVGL
Cholinesterase (Equus caballus, UniProt P81908), sequence (P81908 whole entry): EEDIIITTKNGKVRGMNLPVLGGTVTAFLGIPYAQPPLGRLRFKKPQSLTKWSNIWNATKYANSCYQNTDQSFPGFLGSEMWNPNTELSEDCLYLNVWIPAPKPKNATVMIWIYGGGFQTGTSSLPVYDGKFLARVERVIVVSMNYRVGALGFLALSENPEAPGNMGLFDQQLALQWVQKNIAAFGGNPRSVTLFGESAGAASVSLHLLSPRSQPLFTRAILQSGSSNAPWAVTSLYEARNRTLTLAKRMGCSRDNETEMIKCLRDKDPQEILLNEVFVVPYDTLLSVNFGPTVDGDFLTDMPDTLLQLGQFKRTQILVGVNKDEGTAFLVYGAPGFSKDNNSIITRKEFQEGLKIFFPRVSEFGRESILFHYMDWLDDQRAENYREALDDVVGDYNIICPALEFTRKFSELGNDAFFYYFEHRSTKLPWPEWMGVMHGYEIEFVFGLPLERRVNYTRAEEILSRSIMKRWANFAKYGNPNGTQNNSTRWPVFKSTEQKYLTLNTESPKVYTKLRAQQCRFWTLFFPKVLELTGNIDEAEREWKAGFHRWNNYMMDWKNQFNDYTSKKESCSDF

On to `Cc1ccc(C#CCOc2ccccc2/C=C/c2cc(=O)c3ccccc3o2)cc1`, for which, in data set [1], the IC50 amounted to 3 µM. The same compound had an inhibition in data set [2] of 66%.
Consider `O=C(OCc1ccc(Cl)cc1)c1coc2ccccc2c1=O`, for which the figures for the IC50 in data set [3] and in data set [4] were 19 µM and 10 µM, respectively.
For the compound `Cc1ccc(NC(=O)c2c(OCc3ccccc3)ccc3c(=O)c(C)c(C)oc23)cc1`, in data set [5], the Activity worked out at 70%. In addition, the half-maximal inhibitory concentration (IC50) is 0.1 µM in data set [6] and 4 µM in data set [7].
In [8], `CCOP(=O)(OCC)C(NCCc1ccc(OC)cc1)c1coc2ccccc2c1=O` (stereo unspecified) yielded an IC50 of 0.1 µM.
`COc1ccc2c(=O)cc(C(=O)NCCN3CCCCC3)oc2c1`: the IC50 in data set [9] was 0.09 µM.
In the case of `COc1ccc(-c2cc3cc4c(=O)c(C=O)coc4cc3o2)cc1`, the IC50 in data set [10] amounted to 5 µM; in [11], 10 µM; in data set [12], 15 µM; in data set [13], 18 µM; in [14], 18.1 µM; in data set [15], 9.6 µM. Moreover, in [16], the IC50 stood at 10 µM.
In the case of `COc1ccc2[nH]cc(CCNC(=O)CN(CCCCC3CCN(Cc4ccccc4)CC3)C(=O)c3cc(=O)c4ccccc4o3)c2c1`, the IC50 in [17] stood at 2 µM; in data set [19], 0.012 µM; in data set [20], 21 µM; in data set [21], 3 µM. Besides, in data set [18], the Activity amounted to 3.04 equiv.

A word on the IC50: it is the concentration that inhibits the measured activity by half. For orientation: inhibition means the change of the read-out against control, counted positive when it falls.
